Results: article PMC3961306, “Comparison of the Cancer Gene Targeting and Biochemical Selectivities of All Targeted Kinase Inhibitors Approved for Clinical Use” (PLoS ONE, 2014)
Where two headings read alike, the source gives them in different places.

Key:
Assay in all cases: Kinase profiling in a biochemical assay panel (mobility shift assays and ELISA), %-inhibition at 1 μM; selectivity entropy
[1] = molecular target: panel of more than 300 wild-type and mutant kinases (313 kinase panel) (Homo sapiens, UniProt Q16512); settings: kinase PKN1; 1 μM
[2] = molecular target: panel of more than 300 wild-type and mutant kinases (313 kinase panel) (Homo sapiens, UniProt Q13555)
[3] = molecular target: panel of more than 300 wild-type and mutant kinases (313 kinase panel) (Homo sapiens, UniProt P16234, T674I)
[4] = molecular target: panel of more than 300 wild-type and mutant kinases (313 kinase panel) (Homo sapiens, UniProt P07949, M918T)
[5] = molecular target: T1, panel of more than 300 wild-type and mutant kinases (313 kinase panel) (Homo sapiens, UniProt P53778); settings: kinase p38γ; 1 μM
T1 sequence (P53778 1-367): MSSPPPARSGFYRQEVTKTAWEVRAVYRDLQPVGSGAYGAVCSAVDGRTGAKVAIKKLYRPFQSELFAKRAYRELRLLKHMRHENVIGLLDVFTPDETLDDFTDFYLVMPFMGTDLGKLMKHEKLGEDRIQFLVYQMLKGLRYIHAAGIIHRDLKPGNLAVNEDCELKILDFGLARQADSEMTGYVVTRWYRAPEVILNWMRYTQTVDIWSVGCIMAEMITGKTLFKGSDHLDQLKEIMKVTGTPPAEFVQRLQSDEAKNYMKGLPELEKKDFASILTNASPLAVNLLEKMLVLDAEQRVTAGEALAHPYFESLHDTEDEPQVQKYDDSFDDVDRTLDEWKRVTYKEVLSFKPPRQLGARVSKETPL

[6] = molecular target: panel of more than 300 wild-type and mutant kinases (313 kinase panel) (Homo sapiens, UniProt P07949, G691S)
[7] = molecular target: panel of more than 300 wild-type and mutant kinases (313 kinase panel) (Homo sapiens, UniProt P51451); settings: kinase BLK; 1 μM compound
[8] = molecular target: T2, panel of more than 300 wild-type and mutant kinases (313 kinase panel) (Homo sapiens, UniProt Q9UHD2)
T2 sequence (Q9UHD2 1-729): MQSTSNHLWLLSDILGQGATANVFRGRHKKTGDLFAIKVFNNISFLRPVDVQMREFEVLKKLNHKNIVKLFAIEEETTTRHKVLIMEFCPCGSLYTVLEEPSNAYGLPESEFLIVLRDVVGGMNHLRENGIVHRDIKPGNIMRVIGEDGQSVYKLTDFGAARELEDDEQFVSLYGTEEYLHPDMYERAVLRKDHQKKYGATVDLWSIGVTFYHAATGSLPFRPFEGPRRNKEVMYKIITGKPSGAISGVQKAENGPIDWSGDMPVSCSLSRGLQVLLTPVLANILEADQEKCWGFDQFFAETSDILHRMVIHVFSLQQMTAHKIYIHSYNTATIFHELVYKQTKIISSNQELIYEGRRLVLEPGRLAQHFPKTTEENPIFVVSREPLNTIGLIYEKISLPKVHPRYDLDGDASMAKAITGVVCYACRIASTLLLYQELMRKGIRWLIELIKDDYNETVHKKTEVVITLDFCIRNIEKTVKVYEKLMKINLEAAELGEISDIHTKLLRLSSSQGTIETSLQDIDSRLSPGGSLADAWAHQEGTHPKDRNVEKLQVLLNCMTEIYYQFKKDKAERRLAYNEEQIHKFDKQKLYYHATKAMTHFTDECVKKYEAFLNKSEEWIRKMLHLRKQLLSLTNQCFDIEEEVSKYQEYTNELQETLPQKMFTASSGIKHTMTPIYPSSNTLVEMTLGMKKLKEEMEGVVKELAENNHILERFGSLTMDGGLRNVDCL

[9] = molecular target: panel of more than 300 wild-type and mutant kinases (313 kinase panel) (Homo sapiens, UniProt Q16288); settings: kinase TRKC; 1 μM
[10] = molecular target: panel of more than 300 wild-type and mutant kinases (313 kinase panel) (Homo sapiens, UniProt Q13627)
[11] = molecular target: panel of more than 300 wild-type and mutant kinases (313 kinase panel) (Homo sapiens, UniProt P19784)
[12] = molecular target: T3, panel of more than 300 wild-type and mutant kinases (313 kinase panel) (Homo sapiens, UniProt P45985); settings: kinase MAP2K4; compound at 1 μM
T3 sequence (P45985 1-399): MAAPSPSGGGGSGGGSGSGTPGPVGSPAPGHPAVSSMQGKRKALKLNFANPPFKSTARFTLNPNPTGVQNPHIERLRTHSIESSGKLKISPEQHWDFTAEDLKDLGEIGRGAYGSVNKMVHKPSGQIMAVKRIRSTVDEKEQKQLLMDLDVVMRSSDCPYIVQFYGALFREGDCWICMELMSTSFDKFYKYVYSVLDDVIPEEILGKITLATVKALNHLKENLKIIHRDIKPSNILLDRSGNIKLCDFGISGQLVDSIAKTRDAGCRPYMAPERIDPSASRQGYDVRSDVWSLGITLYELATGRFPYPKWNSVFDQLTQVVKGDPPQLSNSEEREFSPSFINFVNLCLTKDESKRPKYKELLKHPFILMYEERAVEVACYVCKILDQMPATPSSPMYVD

[13] = kinase DYRK1A, compound at 1 μM

## COc1cc(Nc2c(C#N)cnc3cc(OCCCN4CCN(C)CC4)c(OC)cc23)c(Cl)cc1Cl [bosutinib]
[1]
  %-inhibition of PKN1: 32%
[2]; 1 µM
  %-inhibition, CaMK2γ: 8%
[3]; kinase PDGFRα(T674I), 1 μM
  %-inhibition of PDGFRα(T674I): 57%
[4]; kinase RET(M918T), 1 μM
  %-inhibition of RET(M918T): 93%
[5]
  %-inhibition of p38γ: -6%
[6]; kinase RET(G691S), 1 μM
  %-inhibition of RET(G691S): 94%
[7]
  %-inhibition, BLK: 84%
[8]; kinase TBK1, 1 μM
  %-inhibition of TBK1: 32%

## COc1cc2nccc(Oc3ccc(NC(=O)C4(C(=O)Nc5ccc(F)cc5)CC4)cc3)c2cc1OC [cabozantinib]
[1]
  %-inhibition of PKN1: 2.13%
[9]
  %-inhibition of TRKC: 98%
[2]; kinase CaMK2γ, 1 μM compound
  %-inhibition, CaMK2γ: -8%
[3]; kinase PDGFRα(T674I), 1 μM
  %-inhibition of PDGFRα(T674I): 97%
[5]
  %-inhibition of p38γ: 23%
[10]; [13]
  %-inhibition of DYRK1A: -5%
[7]
  %-inhibition, BLK: 100%
[8]; kinase TBK1, 1 μM
  %-inhibition of TBK1: -0.506%
[11]; kinase CK2α2/β, 1 μM compound
  %-inhibition, CK2α2/β: 9%
[12]
  %-inhibition of MAP2K4: -0.379%

## C[C@@H](Oc1cc(-c2cnn(C3CCNCC3)c2)cnc1N)c1c(Cl)ccc(F)c1Cl [crizotinib]
[1]
  %-inhibition of PKN1: 23%
[2]; kinase CaMK2γ, 1 μM compound
  %-inhibition, CaMK2γ: -10%
[3]; kinase PDGFRα(T674I), 1 μM
  %-inhibition of PDGFRα(T674I): 95%
[10]; [13]
  %-inhibition of DYRK1A: -13%
[8]; kinase TBK1, 1 μM
  %-inhibition of TBK1: 1.42%
[11]; kinase CK2α2/β, 1 μM compound
  %-inhibition, CK2α2/β: -10%
[12]
  %-inhibition of MAP2K4: -1.24%

## Cc1nc(Nc2ncc(C(=O)Nc3c(C)cccc3Cl)s2)cc(N2CCN(CCO)CC2)n1 [dasatinib]
[2]; kinase CaMK2γ, 1 μM compound
  %-inhibition, CaMK2γ: -3.57%
[7]
  %-inhibition, BLK: 103%
[11]; kinase CK2α2/β, 1 μM compound
  %-inhibition, CK2α2/β: -4.67%
[12]
  %-inhibition of MAP2K4: -3.71%

## O=S(=O)(c1cccc2cnccc12)N1CCCNCC1 [fasudil]
[1]
  %-inhibition of PKN1: 55%
[9]
  %-inhibition of TRKC: -5.34%
[2]; kinase CaMK2γ, 1 μM compound
  %-inhibition, CaMK2γ: -3.38%
[3]; kinase PDGFRα(T674I), 1 μM
  %-inhibition of PDGFRα(T674I): 21%
[5]
  %-inhibition of p38γ: 1.68%
[10]; [13]
  %-inhibition of DYRK1A: 4.23%
[6]; kinase RET(G691S), 1 μM
  %-inhibition of RET(G691S): -0.0546%
[7]
  %-inhibition, BLK: -2.48%
[8]; kinase TBK1, 1 μM
  %-inhibition of TBK1: -5%
[11]; kinase CK2α2/β, 1 μM compound
  %-inhibition, CK2α2/β: -3.75%
[12]
  %-inhibition of MAP2K4: -5%

## Cc1cn(-c2cc(NC(=O)c3ccc(C)c(Nc4nccc(-c5cccnc5)n4)c3)cc(C(F)(F)F)c2)cn1 [nilotinib]
[1]
  %-inhibition of PKN1: 13%
[2]; kinase CaMK2γ, 1 μM compound
  %-inhibition, CaMK2γ: -2.76%
[3]; 1 µM
  %-inhibition of PDGFRα(T674I): 45%
[4]; 1 µM
  %-inhibition of RET(M918T): 0.118%
[5]
  %-inhibition of p38γ: -15%
[10]
  %-inhibition of DYRK1A: -6.52%
[6]; 1 µM
  %-inhibition of RET(G691S): 13%
[7]
  %-inhibition, BLK: 29%
[8]; 1 µM
  %-inhibition of TBK1: 6%
[11]; 1 µM
  %-inhibition, CK2α2/β: -4.26%
[12]
  %-inhibition of MAP2K4: -4.54%

## Cc1ccc(Nc2nccc(N(C)c3ccc4c(C)n(C)nc4c3)n2)cc1S(N)(=O)=O [pazopanib]
[1]
  %-inhibition of PKN1: 17%
[9]
  %-inhibition of TRKC: 21%
[2]; kinase CaMK2γ, 1 μM compound
  %-inhibition, CaMK2γ: 0.188%
[4]; kinase RET(M918T), 1 μM
  %-inhibition of RET(M918T): 86%
[5]
  %-inhibition of p38γ: -5%
[7]
  %-inhibition, BLK: 62%
[8]; kinase TBK1, 1 μM
  %-inhibition of TBK1: -2.68%
[11]; kinase CK2α2/β, 1 μM compound
  %-inhibition, CK2α2/β: 0.17%

## Cc1ccc(C(=O)Nc2ccc(CN3CCN(C)CC3)c(C(F)(F)F)c2)cc1C#Cc1cnc2cccnn12 [ponatinib]
[1]
  %-inhibition of PKN1: 1.61%
[9]
  %-inhibition of TRKC: 103%
[3]; kinase PDGFRα(T674I), 1 μM
  %-inhibition of PDGFRα(T674I): 99%
[4]; kinase RET(M918T), 1 μM
  %-inhibition of RET(M918T): 101%
[5]
  %-inhibition of p38γ: 86%
[6]; kinase RET(G691S), 1 μM
  %-inhibition of RET(G691S): 102%
[7]
  %-inhibition, BLK: 97%

## N#CC[C@H](C1CCCC1)n1cc(-c2ncnc3[nH]ccc23)cn1 [ruxolitinib]
[1]
  %-inhibition of PKN1: 50%
[2]; kinase CaMK2γ, 1 μM compound
  %-inhibition, CaMK2γ: 56%
[3]; kinase PDGFRα(T674I), 1 μM
  %-inhibition of PDGFRα(T674I): 17%
[5]
  %-inhibition of p38γ: -2.39%
[10]; [13]
  %-inhibition of DYRK1A: -5%
[7]
  %-inhibition, BLK: -1%
[8]; kinase TBK1, 1 μM
  %-inhibition of TBK1: 21%
[11]; 1 µM
  %-inhibition, CK2α2/β: -7%
[12]
  %-inhibition of MAP2K4: 10%

## CCN(CC)CCNC(=O)c1c(C)[nH]c(/C=C2\C(=O)Nc3ccc(F)cc32)c1C [sunitinib]
[7]
  %-inhibition, BLK: 96%
[8]; kinase TBK1, 1 μM
  %-inhibition of TBK1: 56%
[11]; kinase CK2α2/β, 1 μM compound
  %-inhibition, CK2α2/β: 25%

## COc1cc2c(Nc3ccc(Br)cc3F)ncnc2cc1OCC1CCN(C)CC1 [vandetanib]
[1]
  %-inhibition of PKN1: 0.946%
[9]
  %-inhibition of TRKC: 15%
[2]; kinase CaMK2γ, 1 μM compound
  %-inhibition, CaMK2γ: -13%
[3]; kinase PDGFRα(T674I), 1 μM
  %-inhibition of PDGFRα(T674I): 91%
[5]
  %-inhibition of p38γ: -3.79%
[10]; [13]
  %-inhibition of DYRK1A: -11%
[7]
  %-inhibition, BLK: 89%
[8]; kinase TBK1, 1 μM
  %-inhibition of TBK1: 0.911%
[11]; kinase CK2α2/β, 1 μM compound
  %-inhibition, CK2α2/β: -7%
[12]
  %-inhibition of MAP2K4: -2.77%
